Data from US11635429B2 (priority 2019, dated 2023).

Test system: anti-diacetoxyscirpenol monoclonal antibody secreted by hybridoma cell strain DAS5G11E7
Assay type: binding, mouse

| Molecule | Cross reactivity [%] |
| --- | --- |
| 3-acetyldeoxynivalenol [3-acetyl-DON] | <0.01 |
| CC1=CC2O[C@@H]3[C@H](O)C[C@](C)(C2(CO)C(O)C1=O)[C@]31CO1 (stereo partly shown) [DON, vomitoxin] | <0.01 |
| C[C@@H]1Cc2c(Cl)cc(C(=O)N[C@@H](Cc3ccccc3)C(=O)O)c(O)c2C(=O)O1 [OTA, ochratoxin] | <0.01 |
| HT-2 toxin | <0.01 |
